Experimental findings from EP0781773A1, “NOVEL CARBAPENEM DERIVATIVE” (BANYU PHARMACEUTICAL CO., LTD., priority 1994, dated 1996) are described below.

Values after ≈ are worked out from the molar mass of the structure shown. Values joined by “and” are separate entries in the source; they are usually repeats but may differ in a detail not shown here. Equal entries are not always repeated.

One series relates to S.aureus BB5939. Description: In vitro antibacterial activity, agar plate dilution method (MIC). It is filed as cell-based. The settings on record: Staphylococcus aureus; S.aureus BB5939 (β-lactamase-producing bacterium); MH agar, inoculum 10^6CFU/ml, 37 °C, 16 hours; read-out: Minimum inhibitory Concentration (MIC). Here is the method:
(§1) One platinum loopful (inoculum : 10^6CFU/ml) of each test microorganism cultured overnight in Mueller Hinton broth was inoculated into Mueller Hinton agars (MH agar). These media contained an antimicrobial agent in various concentrations. Each test microorganism was cultured at 37 °C for 16 hours, and then the minimum inhibitory concentration (MIC: µg/ml) was assayed. Accordingly, the minimum inhibitory concentrations of compounds of the invention were assayed.

A further series has as its system S.aureus JS1. The series is described as above. The following applies: Staphylococcus aureus, MH agar, inoculum 10^6CFU/ml, 37 °C, 16 hours, read-out: Minimum inhibitory Concentration (MIC). It is filed as cell-based. Here is the method:
as §1

Another series deals with P.mirabilis MB4955. The description is as above. It is filed as cell-based. The settings on record: Proteus mirabilis, MH agar, inoculum 10^6CFU/ml, 37 °C, 16 hours, read-out: Minimum inhibitory Concentration (MIC). As to the method: as §1
The subject of a further series is S.aureus MB4970. The description is as above. It is filed as cell-based. The settings on record: Staphylococcus aureus, MH agar, inoculum 10^6CFU/ml, 37 °C, 16 hours, read-out: Minimum inhibitory Concentration (MIC). Here is the method:
as §1

A further series relates to ICR male mice. The series can be described thus: Acute toxicity in mice. It is filed as in vivo. The settings on record: once into the tail vein, observed 5 days. Here is the method: The compound of Example I-26 was used as a representative compound. The test compound was diluted with distilled water for injection so that the drug liquid concentration became 60.75 mg/ml, and administered once, in an administration rate of 10 to 20 µl/min, into the tail vein of each of 4-week-old ICR male mice, according to "Commentary on GLP Standard and Toxicity Test Method Guidline" (supervised by the Examination Section, Drug Secretariat, the Ministry of Welfare; Yakuji-Nippo Co.). The state of death and the general symptoms of mobility were observed over a period of 5 days after the administration.

The subject of another series is SD rats. The series can be described thus: Toxicity test on the central nervous system in rats. The settings on record: 200 µg/rat into the lateral ventricle, n=5, observed for 30 minutes.
The next series deals with S.aureus CSa929. Description: Agar plate dilution method (MIC), media supplemented with 2 % sodium chloride. The format is cell-based. The settings on record: Staphylococcus aureus, 35 °C, 48 hours, read-out: Minimum inhibitory Concentration (MIC). Here is the method: (§2) One platinum loopful (inoculum : 10^6CFU/ml) of each test microorganism cultured overnight in Mueller Hinton broth was inoculated into Mueller Hinton agars (MH agar). These media contained an antimicrobial agent in various concentrations. […] Accordingly, the minimum inhibitory concentrations of compounds of the invention were assayed. Table 1 The minimum inhibitory concentrations (MIC: µg/ml) of compounds of the invention were assayed according to the above agar plate dilution method using the media supplemented with 2 % sodium chloride as test media and using the culture conditions of 35 °C and 48 hours.

Another series relates to S.aureus MB5393. The description is as above. It is filed as cell-based. The following applies: Staphylococcus aureus, 35 °C, 48 hours, read-out: Minimum inhibitory Concentration (MIC). As to the method: as §2
A further series relates to white rabbits. Description: Renal toxicity test using white rabbits. The format is in vivo. The following applies: for Blood urea nitrogen before administration / Creatinine before administration: just before the administration (baseline). As to the method:
The compound of Example I-72 was made into a liquid with sterilized distilled water for injection so that the drug liquid concentration became 10 %, and intraperitoneally administered once in a dose of 225 mg/kg into 18-week-old male white rabbits from Japan (n=3 per each group). As for a control group, 0.9 % physiological saline was intraperitoneally administered once in the same manner as above. Serum urea nitrogen and creatinine were assayed just before the administration and about 48 hours after the administration. After the blood drawing, each rabbit was killed with leaving them alone under anesthetization and roughly observed, and then autopsy was carried out only on the kidney fixed with neutral 10 % formalin buffer. Each kidney preparation was prepared by a usual method, stained with hematoxylin and eosin and observed by a microscope.

The mark [1] stands for this setting: Mean, n=3, about 48 hours after 225 mg/kg intraperitoneally once.
Where [2] appears, read: individual rabbit, about 48 hours after 225 mg/kg intraperitoneally once.
[3] abbreviates: individual rabbit, 225 mg/kg intraperitoneally once, 225 mg/kg.

Description for SD rats: A chronic guide cannula was inserted into the right lateral ventricle of each of 7-week-old male SD rats (n=5), and fixed by a dental range.

Turning to `C[C@@H](O)[C@H]1C(=O)N2C(C(=O)O)=C(SC(=S)N3CCCC(O)CC3)[C@H](C)[C@H]12` (stereo partly drawn) [Example I-26], the MIC amounted to 0.78 µg/mL (≈ 1.95 µM) in the series with S.aureus BB5939, 0.2 µg/mL (≈ 0.499 µM) in the series with S.aureus JS1, 0.05 µg/mL (≈ 0.125 µM) in the series on P.mirabilis MB4955 and 0.012 µg/mL (≈ 0.03 µM) in the series on S.aureus MB4970. Moreover, the “General symptoms of mobility” value with ICR male mice (1000 mg/kg), in the series on ICR male mice (1500 mg/kg) and in the series on ICR male mice (2000 mg/kg) was “No abnomality” in each case. Besides, the Surviving number in the series with ICR male mice (1000 mg/kg) is listed as 2/2; with ICR male mice (1500 mg/kg) it was 2/2; with ICR male mice (2000 mg/kg), 1/1. For the same compound, the Case of death in the series with SD rats was 0/5.
As to `CNCC(=O)N1CCN(C(=S)SC2=C(C(=O)O)N3C(=O)[C@H]([C@@H](C)O)[C@H]3[C@H]2C)CC1` [Example I-41], the MIC with S.aureus BB5939 was 0.39 µg/mL (≈ 0.881 µM); in the series with S.aureus JS1, 0.1 µg/mL (≈ 0.226 µM); in the series on P.mirabilis MB4955, 0.1 µg/mL (≈ 0.226 µM); with S.aureus MB4970, at most 0.006 µg/mL.
With `C[C@@H](O)[C@H]1C(=O)N2C(C(=O)O)=C(SC(=S)N3CCc4ccccc43)[C@H](C)[C@H]12` [Example I-51], the MIC in the series with S.aureus CSa929 and in the series on S.aureus MB5393 was 0.39 µg/mL (≈ 0.964 µM) throughout.
`C[C@@H](O)[C@H]1C(=O)N2C(C(=O)O)=C(SC(=S)N(C)C)[C@H](C)[C@H]12` [Example I-63]: the MIC in the series with S.aureus BB5939 amounted to 1.56 µg/mL (≈ 4.72 µM); in the series on S.aureus JS1, 0.2 µg/mL (≈ 0.605 µM); with P.mirabilis MB4955 it was 0.1 µg/mL (≈ 0.303 µM); in the series with S.aureus MB4970 it was 25 µg/mL (≈ 75.7 µM).
As to `C[C@@H](O)[C@H]1C(=O)N2C(C(=O)O)=C(SC(=S)N(C)CCO)[C@H](C)[C@H]12` [Example I-72], the “Blood urea nitrogen after administration” value with white rabbits (setting [1]) is 18.1 mg/dL; in the series on white rabbits (setting [2]), 16.8 mg/dL and 16.6 mg/dL and 20.8 mg/dL. Also, the Creatinine after administration is 1.4 mg/dL with white rabbits (setting [1]); 1.3 mg/dl (2×) and 1.5 mg/dl with white rabbits (setting [2]). In addition, the “Blood urea nitrogen before administration” value in the series on white rabbits (Mean, n=3) was 17.4 mg/dL; in the series on white rabbits (setting [3]), 15.8 mg/dL and 16.8 mg/dL and 19.6 mg/dL. Moreover, the Creatinine before administration with white rabbits (Mean, n=3) was 1.3 mg/dL; with white rabbits (setting [3]) it was 1.2 mg/dL and 1.3 mg/dL and 1.4 mg/dL. In the series with white rabbits (individual rabbit, kidney, about 48 hours after 225 mg/kg intraperitoneally once), the “Opinion based on the autopsy” value is “no abnormality”. The MIC with S.aureus BB5939 was 1.56 µg/mL (≈ 4.33 µM); in the series with S.aureus JS1 it was 0.1 µg/mL (≈ 0.277 µM); in the series on P.mirabilis MB4955 it was 0.05 µg/mL (≈ 0.139 µM); in the series with S.aureus MB4970, 0.025 µg/mL (≈ 0.0694 µM).
Consider `C[C@@H](O)[C@H]1C(=O)N2C(C(=O)O)=C(SC(=S)N3Cc4ccc(C[N+]56CC[N+](CC(N)=O)(CC5)CC6)cc4C3)[C@H](C)[C@H]12` [Example III-2], for which the MIC in the series on S.aureus BB5939 is 0.39 µg/mL; with S.aureus JS1, 0.1 µg/mL; in the series with P.mirabilis MB4955, 0.2 µg/mL; in the series with S.aureus MB4970, at most 0.006 µg/mL.
The like results for `C[C@@H](O)[C@H]1C(=O)N2C(C(=O)O)=C(SC(=S)N3CC=C(CN)CC3)[C@H](C)[C@H]12` [Example IV-5] were, in that order, 0.39 µg/mL (≈ 0.981 µM), 0.1 µg/mL (≈ 0.252 µM), 0.05 µg/mL (≈ 0.126 µM) and at most 0.006 µg/mL.
